Target: T1, Human neutrophil elastase (Homo sapiens, UniProt P08246)
T1 construct: Enzyme was isolated from human sputum; from tissue; host or cells: human sputum
T1 sequence (P08246 30-267): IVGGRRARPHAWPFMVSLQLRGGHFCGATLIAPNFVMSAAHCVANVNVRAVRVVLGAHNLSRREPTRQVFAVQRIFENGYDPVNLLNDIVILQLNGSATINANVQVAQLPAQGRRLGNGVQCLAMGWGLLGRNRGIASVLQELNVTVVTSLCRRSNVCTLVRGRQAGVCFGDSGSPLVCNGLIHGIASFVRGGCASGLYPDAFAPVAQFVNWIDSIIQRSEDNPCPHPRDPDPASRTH
Assay: In vitro assay of human neutrophil elastase in the presence of prodrug and porcine liver esterase
Type: biochemical
Conditions: for time course / onset of inhibition of elastase compared with MDL 103,279: 66 nM compound + porcine liver esterase, FIG. 2
Description: Human neutrophil elastase was assayed in vitro using N-MeOSuc-Ala-Ala-Pro-Val-p-nitroanilide, available commercially, as substrate. The assay techniques are similar to those described by Mehdi, et al., Biochemical and Biophysical Research Communications, 166, 595 (1990). The assay mixture consisted of partially purified elastase and substrate (0.2 mM) in 0.1M HEPES (pH 7.5), 0.5M NaCl, 10% DMSO and 0.1% Brij 35. The reaction (3.0 mL, in a plastic cuvette) was maintained at 37° C. and the hydrolysis of the substrate was followed in the presence of 66 nM of MDL 103,279 and 12.5 units of porcine liver esterase (Sigma Chemical Co., cat. no. E-3128). Enzyme was isolated from human sputum, although recently it has become commercially available. The time course of the reaction was followed for 60 min. […] From the final rate, a Ki of 25 nM was calculated for the final inhibitory species, presumed to be MDL 101,146 (as disclosed in European Pat. Appl. OPI No. 0529568, published Mar. 3, 1993). This is consistent with the Ki obtained independently for MDL 101,146. The Ki for MDL 103,279, the prodrug, was estimated from the initial rate to be greater than 2 μM. To rule out interference of the esterase with the elastase assay, or a significant spontaneous (i.e. non-enzymatic) hydrolysis rate of MDL 103,279, the following control experiments, as portrayed in FIG. 1, were performed: (A) elastase+elastase substrate; (B) elastase+elastase substrate+porcine liver esterase; (C) elastase+elastase substrate+MDL 103,279; as well as (D) elastase+elastase substrate+esterase+MDL 103,279.

SMILES	half-time of the progressive increase in extent of inhibition of elastase (66 nM compound, 12.5 units porcine liver esterase, 37° C., followed for 60 min)	Ki (66 nM compound, 12.5 units porcine liver esterase, pH 7.5, 37° C., read-out: Ki of the prodrug estimated from the initial rate) [µM]	time course / onset of inhibition of elastase compared with MDL 103,279
CC(=O)OC(=C(NC(=O)[C@@H]1CCCN1C(=O)[C@@H](NC(=O)c1ccc(C(=O)N2CCOCC2)cc1)C(C)C)C(C)C)C(F)(F)C(F)(F)F [MDL 103,279, (E)-N-[4-(4-Morpholinylcarbonyl)benzoyl]-L-valyl-N-[2-(acetyloxy)-3,3,4,4,4-pentafluoro-1-(1-methylethyl)-1-butenyl]-L-prolinamide]	approximately 10 min	> 2	–
CCC(=O)OC(=C(NC(=O)[C@@H]1CCCN1C(=O)[C@@H](NC(=O)c1ccc(C(=O)N2CCOCC2)cc1)C(C)C)C(C)C)C(F)(F)C(F)(F)F [MDL 104,226, (E)-N-[4-(4-Morpholinylcarbonyl)benzoyl]-L-valyl-N-[3,3,4,4,4-pentafluoro-1-(1-methylethyl)-2-(1-oxopropoxy)-1-butenyl]-L-prolinamide]	–	–	same time course
CC(=O)OC(=C(NC(=O)[C@@H]1CCCN1C(=O)[C@@H](NC(=O)c1ccc(C(=O)N2CCOCC2)cc1)C(C)C)C(C)C)C(F)(F)C(F)(F)F [MDL 105,457, (Z)-N-[4-(4-Morpholinylcarbonyl)benzoyl]-L-valyl-N-[2-(acetyloxy)-3,3,4,4,4-pentafluoro-1-(1-methylethyl)-1-butenyl]-L-prolinamide]	–	–	significantly slower
CC(C)C(=O)OC(=C(NC(=O)[C@@H]1CCCN1C(=O)[C@@H](NC(=O)c1ccc(C(=O)N2CCOCC2)cc1)C(C)C)C(C)C)C(F)(F)C(F)(F)F [MDL 105,658, (E)-N-[4-(4-Morpholinylcarbonyl)benzoyl]-L-valyl-N-[3,3,4,4,4-pentafluoro-1-(1-methylethyl)-2-(2-methyl-1-oxopropoxy)-1-butenyl]-L-prolinamide]	–	–	same time course

From patent US5698523A, “Acylated enol derivatives as prodrugs of elastase inhibitors” (Merrell Pharmaceuticals Inc., priority 1996, dated 1997)
